Laboratory results taken from ChEMBL document CHEMBL4325859, “Research advances on anticancer activities of matrine and its derivatives: An updated overview” (Eur J Med Chem, 2019).

Tests used:
HT-29 [1] = experiment: Growth inhibition of human HT-29 cells at 5 ug/ml by MTT assay relative to control; format: functional; settings: read-out: GI
HT-29 [2] = experiment: Growth inhibition of human HT-29 cells at 10 ug/ml by MTT assay relative to control; format: functional; settings: read-out: GI
HT-29 [3] = experiment: Growth inhibition of human HT-29 cells at 1.25 ug/ml by MTT assay relative to control; format: functional; settings: read-out: GI
HT-29 [4] = experiment: Growth inhibition of human HT-29 cells at 2.5 ug/ml by MTT assay relative to control; format: functional; settings: read-out: GI
HepG2 = experiment: Antiproliferative activity against human HepG2 cells by MTT assay; format: functional, cell-based
HT-29 [5] = experiment: Antiproliferative activity against human HT-29 cells by MTT assay; format: functional, cell-based
PANC-1 = experiment: Antiproliferative activity against human PANC1 cells by MTT assay; format: functional, cell-based
SW480 [6] = experiment: Antitumor activity against human SW480 cells xenografted in Balb/c mouse assessed as tumor growth inhibition at 30 mg/kg, ip administered 2 times per week relative to control; format: functional; settings: read-out: TGI
A-375 = experiment: Growth inhibition of human A375 cells by MTT assay; format: functional, cell-based
HeLa = experiment: Growth inhibition of human HeLa cells by MTT assay; format: functional, cell-based
A-431 = experiment: Growth inhibition of human A431 cells at 120 umol/L by MTT assay relative to control; format: functional; settings: read-out: GI
A549 = experiment: Growth inhibition of human A549 cells at 330 umol/L by MTT assay relative to control; format: functional; settings: read-out: GI
SW480 [7] = experiment: Growth inhibition of human SW480 cells at 330 umol/L by MTT assay relative to control; format: functional; settings: read-out: GI

SMILES | IC50 (HepG2) | IC50 (HT-29 [5]) | IC50 (PANC-1) | further results
CCc1c2c(nc3ccc(OC(=O)N4CCC(N5CCCCC5)CC4)cc13)-c1cc3c(c(=O)n1C2)COC(=O)[C@]3(O)CC [IRINOTECAN] |  |  |  | inhibition of growth at 5 µg/mL (HT-29 [1]): 54.7%; inhibition of growth at 10 µg/mL (HT-29 [2]): 59.3%; inhibition of growth at 1.25 µg/mL (HT-29 [3]): 22.9%; inhibition of growth at 2.5 µg/mL (HT-29 [4]): 37.4%
O=C(CCC[C@@H]1[C@H]2CCCN3CCC[C@@H](CN1Cc1ccccc1)[C@@H]23)OCCCc1no[n+]([O-])c1S(=O)(=O)c1ccccc1 | 11.5 µM |  |  | 
COc1ccc(/C=C2\CC[C@@H]3[C@H]4CCCN5CCC[C@@H](CN3C2=O)[C@@H]45)c(OC)c1OC |  | 13.2 µM | 13.2 µM | 
COc1ccc(/C=C2\CC[C@@H]3[C@H]4CCCN5CCC[C@@H](CN3C2=O)[C@@H]45)cc1 |  | 27.8 µM | 27.8 µM | 
O=C(CCC[C@@H]1[C@H]2CCCN3CCC[C@@H](CN1Cc1ccccc1)[C@@H]23)OCCOCCc1no[n+]([O-])c1S(=O)(=O)c1ccccc1 | 14.2 µM |  |  | 
COc1cc(/C=C2\CC[C@@H]3[C@H]4CCCN5CCC[C@@H](CN3C2=O)[C@@H]45)cc(OC)c1OC |  | 9.05 µM | 9.05 µM | 
O=C(CCC[C@@H]1[C@H]2CCCN3CCC[C@@H](CN1Cc1ccccc1)[C@@H]23)NCCc1no[n+]([O-])c1S(=O)(=O)c1ccccc1 | 8.02 µM |  |  | 
O=c1[nH]cc(F)c(=O)[nH]1 [FLUOROURACIL] |  |  |  | inhibition in vivo at 30 mg/kg (SW480 [6]): 63.1%
COc1ccc(/C=C2\CC[C@@H]3[C@H]4CCCN5CCC[C@@H](CN3C2=O)[C@@H]45)cc1OC |  | 18 µM | 18 µM | 
CCCCOC(=O)CCC[C@@H]1[C@H]2CCCN3CCC[C@@H](CN1Cc1ccccc1)[C@@H]23 |  |  |  | IC50 (A-375): 149 µM; IC50 (HeLa): 304 µM
O=C(CCC[C@@H]1[C@H]2CCCN3CCC[C@@H](CN1Cc1ccccc1)[C@@H]23)OCCc1no[n+]([O-])c1S(=O)(=O)c1ccccc1 | 11.4 µM |  |  | 
O=C1C[C@@H](SC(=S)N2CCCCC2)C[C@@H]2[C@H]3CCCN4CCC[C@@H](CN12)[C@@H]34 |  |  |  | inhibition of growth at 120 µM (A-431): > 94%; inhibition of growth at 330 µM (A549): > 95%; inhibition of growth at 330 µM (SW480 [7]): > 65%
